Tests used:
[1] = test system: Bacillus cereus var mycoide ATCC 11778; assay: minimum inhibitory concentration; type: cell-based; conditions: Gram + Bacteria
[2] = test system: Bacillus subtilis ATCC 6633; assay: minimum inhibitory concentration; type: cell-based; conditions: Gram + Bacteria
[3] = test system: Listeria monocytogenes ATCC 7644; assay: minimum inhibitory concentration; type: cell-based; conditions: Gram + Bacteria
[4] = test system: Lactobacillus delbrueckii ssp lactis CECT 372; assay: minimum inhibitory concentration; type: cell-based; conditions: Gram + Bacteria
[5] = test system: Leuconostoc mesenteroides CETC 912; assay: minimum inhibitory concentration; type: cell-based; conditions: Gram + Bacteria
[6] = test system: Klebsiella pneumoniae var pneumoniae CECT 178; assay: minimum inhibitory concentration; type: cell-based; conditions: Gram − Bacteria
[7] = test system: Proteus mirabilis CECT 170; assay: minimum inhibitory concentration; type: cell-based; conditions: Gram − Bacteria
[8] = test system: Salmonella typhimurium ATCC 16028; assay: minimum inhibitory concentration; type: cell-based; conditions: Gram − Bacteria
[9] = test system: Serratia marcenses CECT 274; assay: minimum inhibitory concentration; type: cell-based; conditions: Gram − Bacteria
[10] = test system: Mycobacterium phlei ATCC 41423; assay: minimum inhibitory concentration; type: cell-based; conditions: Gram + Bacteria
[11] = test system: Aspergillus niger ATCC 14604; assay: minimum inhibitory concentration; type: cell-based; conditions: Fungi
[12] = test system: Aureobasidium pullulans ATCC 9348; assay: minimum inhibitory concentration; type: cell-based; conditions: Fungi
[13] = test system: Chaetonium globosum ATCC 6205; assay: minimum inhibitory concentration; type: cell-based; conditions: Fungi
[14] = test system: Candida albicans ATCC 10231; assay: minimum inhibitory concentration; type: cell-based; conditions: Yeast
[15] = test system: Aerobes; assay: preservative efficacy (Antimicrobial Effectiveness Testing USP 24th Edition) in cosmetic formulations; type: cell-based; conditions: 0.20 g of LAE
Description: (§1) This assay consists of the contamination of the protecting formulations with an inoculum mixture of 10^8 cfu/mL concentration, for each of the microorganisms, and the determination of the number of viable cells in the time. This inoculum mixture is composed of the following microorganisms:
(§2) The cosmetic composition to be analysed is divided into sterile containers with 50 g of product for each flask. Each container is inoculated with 0.5 mL of inoculum (10^8 cfu/mL). The target concentration is 10^6 cfu/mL, approximately. All the containers are kept at a temperature between 20-25° C. and are protected from light.
(§3) The level of the microbial contamination is checked at 0 hours, 7 days, 14 days and 28 days. The number of colonies is evaluated by dilution in buffer peptone with the appropriate neutraliser agent of the preservative. The culture media used for counting the microorganisms are: Soya triptone (35-37° C., 48 hours) for the determination of bacteria; Sabouraud agar with chloramphenicol for fungi and yeast (25° C., 3-5 days).
(§4) According to Antimicrobial Effectiveness Testing USP 24th Edition, 1999 (pp. 1809-1811), an antimicrobial preservative is considered to be effective in topically used products made with aqueous bases or vehicles, non-sterile nasal products and emulsions, including those applied to mucous membranes, if: • Not less than 2.0 logarithm reduction from the initial calculated bacteria's count is reached at 14 days and no increase from the 14 days' count at 28 days is detected; and • No increase from the initial calculated count of yeast and moulds is observed.

[16] = test system: Fungi; assay: as above; type: cell-based, Aspergillus niger ATCC 16404; conditions: 0.20 g of LAE
Description: as §1, §2, §3, §4

[17] = Example 1, oil-in-water emulsion with non-ionic surfactant, 7 days
[18] = Example 1, oil-in-water emulsion with non-ionic surfactant, 14 days
[19] = Example 1, oil-in-water emulsion with non-ionic surfactant, Initial
[20] = Example 2, oil-in-water emulsion with an ionic emulsifier, 7 days
[21] = Example 2, oil-in-water emulsion with an ionic emulsifier, 14 days
[22] = Example 2, oil-in-water emulsion with an ionic emulsifier, Initial
[23] = Example 3, water in oil emulsion with non-ionic emulsifiers, 7 days
[24] = Example 3, water in oil emulsion with non-ionic emulsifiers, 14 days
[25] = Example 3, water in oil emulsion with non-ionic emulsifiers, Initial
[26] = Example 4, aqueous solution with a surfactants' mixture (bath gels, disodium cocoamfoacetate), 7 days
[27] = Example 4, aqueous solution with a surfactants' mixture (bath gels, disodium cocoamfoacetate), 14 days
[28] = Example 4, aqueous solution with a surfactants' mixture (bath gels, disodium cocoamfoacetate), Initial
[29] = Example 5, aqueous solution with a surfactants' mixture (bath gels, disodium lauryl sulfosuccinate), 7 days
[30] = Example 5, aqueous solution with a surfactants' mixture (bath gels, disodium lauryl sulfosuccinate), 14 days
[31] = Example 5, aqueous solution with a surfactants' mixture (bath gels, disodium lauryl sulfosuccinate), Initial
[32] = Example 6, hydroalcoholic gel (after-shaving lotions), 7 days
[33] = Example 6, hydroalcoholic gel (after-shaving lotions), 14 days
[34] = Example 6, hydroalcoholic gel (after-shaving lotions), Initial
[35] = Example 7, facial tonic, 7 days
[36] = Example 7, facial tonic, 14 days
[37] = Example 7, facial tonic, Initial
[38] = Example 8, mask-up cleaner, 7 days
[39] = Example 8, mask-up cleaner, 14 days
[40] = Example 8, mask-up cleaner, Initial
[41] = Example 9, fluid oil-in-water emulsion with non-ionic surfactants (body oil), 7 days
[42] = Example 9, fluid oil-in-water emulsion with non-ionic surfactants (body oil), 14 days
[43] = Example 9, fluid oil-in-water emulsion with non-ionic surfactants (body oil), Initial
[44] = Example 10, toothpaste formulation, 7 days
[45] = Example 10, toothpaste formulation, 14 days
[46] = Example 10, toothpaste formulation, Initial
[47] = Example 11, aqueous solution with surfactants (shampoos), 7 days
[48] = Example 11, aqueous solution with surfactants (shampoos), 14 days
[49] = Example 11, aqueous solution with surfactants (shampoos), Initial
[50] = Example 12, oil-in-water emulsion with non-ionic surfactants (face cream), 7 days
[51] = Example 12, oil-in-water emulsion with non-ionic surfactants (face cream), 14 days
[52] = Example 12, oil-in-water emulsion with non-ionic surfactants (face cream), Initial
[53] = Example 13, oil-in-water emulsion with non-ionic surfactants (sun protector, polysorbate 60), 7 days
[54] = Example 13, oil-in-water emulsion with non-ionic surfactants (sun protector, polysorbate 60), 14 days
[55] = Example 13, oil-in-water emulsion with non-ionic surfactants (sun protector, polysorbate 60), Initial
[56] = Example 14, oil-in-water emulsion with non-ionic surfactants (sun protector, cetyl dimethicone copolyol), 7 days
[57] = Example 14, oil-in-water emulsion with non-ionic surfactants (sun protector, cetyl dimethicone copolyol), 14 days
[58] = Example 14, oil-in-water emulsion with non-ionic surfactants (sun protector, cetyl dimethicone copolyol), Initial
[59] = Example 15, emulsion for hands care, 7 days
[60] = Example 15, emulsion for hands care, 14 days
[61] = Example 15, emulsion for hands care, Initial

CCCCCCCCCCCC(=O)N[C@@H](CCCN=C(N)N)C(=O)OCC.Cl [LAE, ethyl ester of the lauramide of the arginine monohydrochloride]
M.I.C. [1]: 32 ppm | M.I.C. [2]: 16 ppm | M.I.C. [3]: 10 ppm | M.I.C. [4]: 16 ppm | M.I.C. [5]: 32 ppm | M.I.C. [6]: 32 ppm | M.I.C. [7]: 32 ppm | M.I.C. [8]: 32 ppm | M.I.C. [9]: 32 ppm | M.I.C. [10]: 2 ppm | M.I.C. [11]: 32 ppm | M.I.C. [12]: 16 ppm | M.I.C. [13]: 16 ppm | M.I.C. [14]: 16 ppm | viable count With LAE [15, 17]: 3.1 · 10^3 cfu/mL | viable count With LAE [15, 18]: 3.3 · 10^2 cfu/mL | viable count With LAE [15, 19]: 1.1 · 10^6 cfu/mL | viable count With LAE [15, 20]: 1.6 · 10^4 cfu/mL | viable count With LAE [15, 21]: 6.5 · 10^2 cfu/mL | viable count With LAE [15, 22]: 2.7 · 10^6 cfu/mL | viable count With LAE [15, 23]: 1.8 · 10^3 cfu/mL | viable count With LAE [15, 24]: <9.9 · 10^1 cfu/mL | viable count With LAE [15, 25]: 6.2 · 10^6 cfu/mL | viable count With LAE [15, 26]: 5.8 · 10^3 cfu/mL | viable count With LAE [15, 27]: <9.9 · 10^1 cfu/mL | viable count With LAE [15, 28]: 3.3 · 10^6 cfu/mL | viable count With LAE [15, 29]: 4.8 · 10^2 cfu/mL | viable count With LAE [15, 30]: 1.3 · 10^2 cfu/mL | viable count With LAE [15, 31]: 6.7 · 10^6 cfu/mL | viable count With LAE [15, 32]: 6.9 · 10^3 cfu/mL | viable count With LAE [15, 33]: <9.9 · 10^1 cfu/mL | viable count With LAE [15, 34]: 3.7 · 10^6 cfu/mL | viable count With LAE [15, 35]: 3.6 · 10^3 cfu/mL | viable count With LAE [15, 36]: 5.9 · 10^2 cfu/mL | viable count With LAE [15, 37]: 2.7 · 10^6 cfu/mL | viable count With LAE [15, 38]: 3.8 · 10^3 cfu/mL | viable count With LAE [15, 39]: 6.7 · 10^2 cfu/mL | viable count With LAE [15, 40]: 4.5 · 10^6 cfu/mL | viable count With LAE [15, 41]: 7.6 · 10^3 cfu/mL | viable count With LAE [15, 42]: <9.9 · 10^1 cfu/mL | viable count With LAE [15, 43]: 4.5 · 10^6 cfu/mL | viable count With LAE [15, 44]: 3.3 · 10^3 cfu/mL | viable count With LAE [15, 45]: 8.0 · 10^2 cfu/mL | viable count With LAE [15, 46]: 4.5 · 10^6 cfu/mL | viable count With LAE [15, 47]: 4.8 · 10^3 cfu/mL | viable count With LAE [15, 48]: 7.0 · 10^2 cfu/mL | viable count With LAE [15, 49]: 3.3 · 10^6 cfu/mL | viable count With LAE [15, 50]: 3.7 · 10^4 cfu/mL | viable count With LAE [15, 51]: 1.9 · 10^3 cfu/mL | viable count With LAE [15, 52]: 1.1 · 10^6 cfu/mL | viable count With LAE [15, 53]: 8.4 · 10^3 cfu/mL | viable count With LAE [15, 54]: 7.5 · 10^2 cfu/mL | viable count With LAE [15, 55]: 3.1 · 10^6 cfu/mL | viable count With LAE [15, 56]: 9.4 · 10^2 cfu/mL | viable count With LAE [15, 57]: 8.7 · 10^2 cfu/mL | viable count With LAE [15, 58]: 1.4 · 10^6 cfu/mL | viable count With LAE [15, 59]: 3.3 · 10^3 cfu/mL | viable count With LAE [15, 60]: <9.9 · 10^1 cfu/mL | viable count With LAE [15, 61]: 4.4 · 10^6 cfu/mL | viable count With LAE [16, 17]: <9.9 · 10^1 cfu/mL | viable count With LAE [16, 18]: <9.9 · 10^1 cfu/mL | viable count With LAE [16, 19]: 1.7 · 10^4 cfu/mL | viable count With LAE [16, 20]: <9.9 · 10^1 cfu/mL | viable count With LAE [16, 21]: <9.9 · 10^1 cfu/mL | viable count With LAE [16, 22]: 1.4 · 10^4 cfu/mL | viable count With LAE [16, 23]: <9.9 · 10^1 cfu/mL | viable count With LAE [16, 24]: <9.9 · 10^1 cfu/mL | viable count With LAE [16, 25]: 1.0 · 10^4 cfu/mL | viable count With LAE [16, 26]: 2.7 · 10^2 cfu/mL | viable count With LAE [16, 27]: <9.9 · 10^1 cfu/mL | viable count With LAE [16, 28]: 1.9 · 10^4 cfu/mL | viable count With LAE [16, 29]: <9.9 · 10^1 cfu/mL | viable count With LAE [16, 30]: <9.9 · 10^1 cfu/mL | viable count With LAE [16, 31]: 1.4 · 10^4 cfu/mL | viable count With LAE [16, 32]: 4.1 · 10^2 cfu/mL | viable count With LAE [16, 33]: <9.9 · 10^1 cfu/mL | viable count With LAE [16, 34]: 9.1 · 10^4 cfu/mL | viable count With LAE [16, 35]: 1.3 · 10^2 cfu/mL | viable count With LAE [16, 36]: <9.9 · 10^1 cfu/mL | viable count With LAE [16, 37]: 2.1 · 10^4 cfu/mL | viable count With LAE [16, 38]: 3.5 · 10^2 cfu/mL | viable count With LAE [16, 39]: <9.9 · 10^1 cfu/mL | viable count With LAE [16, 40]: 7.6 · 10^4 cfu/mL | viable count With LAE [16, 41]: 1.4 · 10^2 cfu/mL | viable count With LAE [16, 42]: <9.9 · 10^1 cfu/mL | viable count With LAE [16, 43]: 7.6 · 10^4 cfu/mL | viable count With LAE [16, 44]: 1.6 · 10^2 cfu/mL | viable count With LAE [16, 45]: <9.9 · 10^1 cfu/mL | viable count With LAE [16, 46]: 5.6 · 10^4 cfu/mL | viable count With LAE [16, 47]: 1.1 · 10^2 cfu/mL | viable count With LAE [16, 48]: <9.9 · 10^1 cfu/mL | viable count With LAE [16, 49]: 9.6 · 10^4 cfu/mL | viable count With LAE [16, 50]: 8.7 · 10^2 cfu/mL | viable count With LAE [16, 51]: <9.9 · 10^1 cfu/mL | viable count With LAE [16, 52]: 1.7 · 10^4 cfu/mL | viable count With LAE [16, 53]: 2.7 · 10^2 cfu/mL | viable count With LAE [16, 54]: <9.9 · 10^1 cfu/mL | viable count With LAE [16, 55]: 4.9 · 10^4 cfu/mL | viable count With LAE [16, 56]: 6.7 · 10^2 cfu/mL | viable count With LAE [16, 57]: <9.9 · 10^1 cfu/mL | viable count With LAE [16, 58]: 5.3 · 10^4 cfu/mL | viable count With LAE [16, 59]: 8.7 · 10^2 cfu/mL | viable count With LAE [16, 60]: <9.9 · 10^1 cfu/mL | viable count With LAE [16, 61]: 5.8 · 10^4 cfu/mL

— patent US8388986B2, “Use of cationic surfactants in cosmetic preparations” (priority 2001, dated 2013)
